This note sets out measurements from a melting point compilation (Tetko et al.; mined from patent text by program, amines drawn as free bases though some values may be those of a salt).

Bounds are passed on as bounds.

As for `O=C1N(Cc2cccc(OC(F)(F)F)c2)c2ccccc2C12COc1cc3c(cc12)OCO3` (stereo not drawn), the melting point lay in the range of 88 to 91 °C.

With `O=C(O)CN1C(=O)C(NC(=O)Nc2cccc3ccccc23)CCc2ccccc21` (stereo not drawn), the melting point was in the range of 215 to 216 °C. In the case of `O=C1OC(=O)C2CCCC1C2`, the melting point fell in the range of 138 to 140 °C. To `O=C(O)C(c1ccc([N+](=O)[O-])cc1)N1CCCC1` (stereo not drawn) belongs 103 to 105 °C; to `Cc1ccc(N2CCN(Cc3ccc4c(c3)NCCN4)CC2)cc1C`, 148 to 149 °C; to `CC1(C)CC(=O)Nc2cc3nc(-c4ccc(S(=O)(=O)O)cc4)[nH]c3cc21`, greater than 300 °C. Compound `CCCCCCCCC#CCC#CCC#CCSCC(=O)NCC` displayed a melting point of 59 °C. The result for `CCOc1cc(OCCCc2cn(-c3ccc(C(F)(F)F)cn3)nc2O)ccc1CCC(=O)OC` reads 147 to 148 °C. To `CCCCc1cc2cc(NS(C)(=O)=O)ccc2o1` belongs 105 to 106 °C; to `COc1cc(C(C)C)c(Oc2c(N)nc(N)nc2C2COC(C)(C)OC2)cc1I`, 167 to 168 °C; to `CCN1CC[C@H](NC(=O)c2cc(Cl)c(N)c3c2OCCC3)[C@H](OC)C1` (relative stereo), 154 °C. `O=P(Oc1ccc(Oc2ccccc2)cc1)(Oc1ccc(Oc2ccccc2)cc1)c1ccccc1` returned a melting point of 92 to 93 °C. The result for `COc1ccc(-c2n[nH]c3c2sc2ccccc23)cc1` reads 185 to 187 °C. Compound `O=C(NCc1ccccc1O)c1[nH]c2ccc(Cl)cc2c1S(=O)(=O)c1ccccc1` registered a melting point of 243 to 244 °C. The result for `CC(C)(O)Cn1c(CONS(C)(=O)=O)nc2c(N)nc3ccccc3c21` reads 232 to 234 °C; that for `Cc1nnc(-c2ccccc2F)n2nc(OCc3ncnn3C)c(-c3ccccc3)c12`, 159 to 162 °C; that for `CCC=Cc1ncc(/C=C(\Cc2cccs2)C(=O)O)n1Cc1ccccc1Cl`, 224 to 226 °C. To `Cc1cccc(NC(=O)N2CCN(CCc3ccc(-c4cccc(N)n4)cc3)CC2)c1` belongs 88 to 94 °C. In the case of `O=C(O)CCCC(=O)S[C@@H]1CC(=O)N(Cc2ccc(Oc3ccc(F)cc3)nc2)C1`, the melting point fell in the range of 132 to 133 °C. The result for `CCCC(CCC)n1c(CC)nc2c1C(=O)N(C)CN2c1ccc(Cl)cc1Cl` reads 117 to 118 °C. To `COC(=O)c1cccc(-c2ccccc2[N+](=O)[O-])c1` belongs 88 to 90 °C; to `COc1ccc(COc2cccnc2NC(=N)Nc2ccc(Cl)cc2)c(F)c1`, 158 to 161 °C. For `COc1ccc(CNc2ncnc3c(N4CCOCC4)nc(N4CCC(N(C)C)CC4)nc23)cc1`, the melting point is 124 to 126 °C. To `N#Cc1ccc(Cn2cc(C#N)nn2)cc1` belongs 93.5 to 94 °C. To `C=CCn1c(Br)c(C[C@H](NC(C)=O)C(=O)OC)c2c(Br)c(OC)c(Br)cc21` belongs 191 to 192 °C; to `CC(C)(C)C(=O)Nc1cnc(C(=O)CO)cn1`, 169 to 172 °C; to `O=C(O)C=Cc1ccc(Oc2c(-c3ccc(O)cc3)ccc3cc(O)ccc23)cc1`, 150 to 153 °C. To `CC(C)(C)C(O)(COc1ccc(F)cc1)C(F)n1cncn1` (stereo not drawn) belongs 89 to 90 °C.

For the compound `O=C(NC(=O)c1c(Cl)cccc1Cl)Nc1cc(-c2ccc(-c3ccccc3)cc2)on1`, the melting point lay in the range of 225 to 227 °C. With `O=c1cc(COC2CCCCO2)occ1OCc1ccc(CBr)cc1` (stereo not drawn), the melting point was found to be 83.5 °C. On to `CC(=O)NC[C@@H]1C[C@H]1c1cccc2nn(C)cc12` (relative stereo), for which the melting point fell in the range of 145 to 147 °C. The result for `O=C1O[C@H](CO)CN1c1ccc(C2CCCCC2)cc1` reads 166 to 168 °C.

As for `Cc1ccc(-c2ccccc2-c2c(OC(C)C)c(=O)c2=O)cc1`, the melting point lay within 126 to 130 °C. Consider `Cc1cc(Oc2ccc(S(C)(=O)=O)c(S(F)(F)(F)(F)F)c2)c(S(C)(=O)=O)cc1C(=O)NC(=N)N`, for which the melting point stood at 275 °C. In turn, `Oc1ccc(CNCc2cccc(C(F)(F)F)c2)c2cccnc12` came in with a melting point of 127 to 129 °C. On to `O=C1C(=Cc2ccccc2)C(=O)c2ccccc21`, for which the melting point is 150 °C.

In turn, `CN(CCN(C)c1ccnc2c(NC(=O)c3c(Cl)cccc3Cl)cccc12)C(=O)c1cccnc1` came in with a melting point of 195 to 203 °C. `CN(C(=O)C1CC1)c1cccc(-c2ccnc3c(C(=O)c4ccco4)cnn23)c1` displayed a melting point of 207 to 209 °C. Regarding `CN(C)C(=O)Cc1c(-c2ccc(Cl)cc2)nn2cccnc12`, the melting point lay within 174 to 176 °C. The result for `C=CC1CCC2C3CC(=O)C4=CC(=O)CCC4(C)C3CCC12C` (stereo not drawn) reads 114 to 120 °C; that for `CNc1cccc(-c2ccnc3c(C(=O)c4ccccc4)cnn23)c1`, 134 to 136 °C; that for `CN(CCCSCCCC(F)(F)C(F)(F)F)CCOc1ccc(C2=C(c3ccccc3)CCCc3cc(O)ccc32)cc1`, 40 to 42 °C. As to `COc1ccc2c(CN3CCC[C@H]3C(=O)O)cc3cc4c(cc3c2c1)OCO4`, the melting point was in the range of 145 to 146 °C. Compound `Oc1ccc(-c2nc3cc(O)c(Br)cc3o2)cc1F` showed a melting point of 224 to 226 °C. To `OC1C(COC2CC2)OC(n2cnc3c(NC4CCCC4)ncnc32)C1O` (stereo not drawn) belongs 126 to 128 °C; to `CN(CCCCCNC(=NCCSCc1csc(NC(=N)N)n1)NC#N)CCC(c1ccc(Cl)cc1)c1ccccn1` (stereo not drawn), 87 to 90 °C. In the case of `O=c1c2cc(F)c(N3CCCC3)nc2n(-c2cccc(C(F)(F)F)c2)c(=O)n1OCc1ccccc1`, the melting point is greater than 250 °C. In turn, `CC(C)(C)OC(=O)N1CCN(C(=O)C2CCCCN2C(=O)OCc2ccccc2)CC1` (stereo not drawn) returned a melting point of 102 °C. Compound `O=C1c2ccccc2C(=O)N1OCCBr` had a melting point of 98 °C. The result for `COc1cc2ccccc2cc1NC(=O)N1CCN(c2cc(F)cc(F)c2)CC1` reads 160 to 161 °C.

Consider `CC(Oc1ccc(Oc2cnc3cc(Cl)ccc3n2)cc1)C(=O)Nc1ccc(C(F)(F)F)cc1` (stereo not drawn), for which the melting point was in the range of 176 to 178 °C. To `Cc1nccn1-c1nc(-c2ccc(Cl)cc2)c(CCCCO)o1` belongs 110 to 111 °C; to `C=CC(=O)c1ccc(OCC(=O)O)c(Cl)c1Cl`, 111 to 113 °C. The compound `O=C1C(CCO)Oc2ccccc2N1Cc1cccc2ccccc12` (stereo not drawn) registered a melting point of 100 to 104 °C. For the compound `COc1c2c(c(OC)c(OC)c1OC)CCC(CCOc1ccccn1)CC2`, the melting point lay within 132 to 135 °C. To `CC(=O)Nc1ccc(Cn2cnc3c(Cl)ncnc32)cc1` belongs 240 to 242 °C.

On to `CC(=O)c1c(C)nc(C)nc1NCc1ccc(Br)cc1`, for which the melting point was in the range of 78 to 80 °C. `CCOC(=O)c1cn(C)c2cnc3c(F)c(N4CCC(O)(c5cccc(C(F)(F)F)c5)CC4)ccc3c2c1=O` came in with a melting point greater than 260 °C. The result for `O=C(NCCC(F)(F)F)c1nc(Cl)c(Cl)[nH]1` reads 177 °C; that for `N#CCCCc1ccc2ccccc2c1O`, 76 to 78 °C; that for `COC(=O)c1nc(N(C)C)ccc1Oc1nc(OC)cc(OC)n1`, 125 to 127 °C.

`O=C1CCC(c2ccccc2)(c2ccccc2)[C@@H]2CN(C(=O)Cc3c[nH]c4ccccc34)C[C@H]12` (racemic) returned a melting point of 250 °C.

`O=c1c2ccccc2sc2ccc(SCCO)cc12` showed a melting point of 94 °C. The result for `O=C(Nc1cc(-c2ccnc3c(C(=O)c4cccs4)cnn23)ccc1Cl)c1ccccc1` reads 217 to 218 °C; that for `CCC(C)(C#N)NC(=O)Cc1c(C)cc(C)cc1C` (stereo not drawn), 155 to 157 °C. The result for `O=C(NCCCc1ccncc1)N(CCCCC(F)(F)F)CCC12CC3CC(CC(C3)C1)C2` reads 117 to 119 °C; that for `COc1cccc(-c2cnn3c(-c4cccc(NC(=O)CC(C)C)c4)ccnc23)c1`, 153 to 154 °C.

Regarding `O=C(c1ccccc1)[C@]1([N+](=O)[O-])[C@H](c2ccccc2)[C@H]2C[C@H](O)[C@@H]1C2` (relative stereo), the melting point was 168 to 169 °C. `CCOC(=O)c1c(NC=CC(=O)C(C)C)sc(-c2ccc(OC)cc2)c1C` yielded a melting point of 121 to 122 °C.

Take `CN(C)CCCNC(=O)N1CCN(c2ccccc2)CC1`: the melting point lay in the range of 91 to 95 °C. To `CC(C)Nc1cccnc1N1CCN(C(=O)c2ccc(C(=O)NCCCO)cc2)CC1` belongs 110 to 111 °C; to `Cn1cnc(COc2nc3c(nnn3-c3ccccc3)c3ccccc23)n1`, 189 to 190 °C; to `O=C(O)C(=O)CC(=O)c1cccn1Cc1cccc(Cl)c1`, 159 to 161 °C.

In turn, `COc1ccc2[nH]ccc2c1OCc1ccccc1` gave a melting point of 83 to 84 °C. The result for `Cn1cnc2ccc(N/C(=C3\C(=O)Nc4ccccc43)c3ccccc3)cc21` reads 163 to 165 °C; that for `Cc1sc(C(N)=O)c2c1-c1c(cnn1C)CC2`, 184 to 185 °C. `COc1cc(Nc2c(C#N)cnc3cc(N4CCC(N5CCCC5)CC4)c(OC)cc23)c(Cl)cc1Cl` yielded a melting point of 225 to 227 °C. The result for `c1nc(SCC2CCCC2)n[nH]1` reads 48 to 55 °C; that for `COc1ccc2ccc(S(=O)(=O)Cl)cc2c1`, 81 to 85 °C.

As for `CC(=O)c1cc2sc(C)c(N(C)S(=O)(=O)c3cccs3)c2[nH]1`, the melting point worked out at 220 °C. To `CCCC(=O)Oc1cc([N+](=O)[O-])cc([N+](=O)[O-])c1O` belongs 65 to 70 °C; to `CCCCCCCCNc1nc(Cl)nc(NCCCCCCCC)n1`, 171 to 172 °C; to `CSc1ccc(C(CC2CCCC2)C(=O)O)cc1C(F)(F)F` (stereo not drawn), 105 to 106 °C. To `CC1=C(C)C(Cc2csc3ccccc23)N(C)C=C1` (stereo not drawn) belongs 185 to 190 °C; to `Cc1ccc(C)c(C(=O)c2cc(Cl)ccc2Cl)c1`, 58 to 61 °C. The result for `CC(=O)OCC(C)(C)c1cc(OS(C)(=O)=O)ccc1OC(C)=O` reads 49 to 51 °C; that for `O=C(O)Cc1ccc2c(c1)Cc1ccccc1CO2`, 155 to 157 °C; that for `CC(C)OC(=O)c1cc(-n2c(=O)[nH]c3c(c2=O)CCC3)c(F)cc1Cl`, 204 to 207 °C.

As a reminder, the melting point is the temperature of the solid-liquid transition.
